Usually EC50 stands for the concentration at which the effect is half-maximal. The low end stands for higher potency in that assay, the high end for lower potency in that assay.

One assay deals with T1, human RXFP1 (Homo sapiens, UniProt Q9HBX9).
T1 construct: expressed in transfected cells
T1 sequence (Q9HBX9 1-757): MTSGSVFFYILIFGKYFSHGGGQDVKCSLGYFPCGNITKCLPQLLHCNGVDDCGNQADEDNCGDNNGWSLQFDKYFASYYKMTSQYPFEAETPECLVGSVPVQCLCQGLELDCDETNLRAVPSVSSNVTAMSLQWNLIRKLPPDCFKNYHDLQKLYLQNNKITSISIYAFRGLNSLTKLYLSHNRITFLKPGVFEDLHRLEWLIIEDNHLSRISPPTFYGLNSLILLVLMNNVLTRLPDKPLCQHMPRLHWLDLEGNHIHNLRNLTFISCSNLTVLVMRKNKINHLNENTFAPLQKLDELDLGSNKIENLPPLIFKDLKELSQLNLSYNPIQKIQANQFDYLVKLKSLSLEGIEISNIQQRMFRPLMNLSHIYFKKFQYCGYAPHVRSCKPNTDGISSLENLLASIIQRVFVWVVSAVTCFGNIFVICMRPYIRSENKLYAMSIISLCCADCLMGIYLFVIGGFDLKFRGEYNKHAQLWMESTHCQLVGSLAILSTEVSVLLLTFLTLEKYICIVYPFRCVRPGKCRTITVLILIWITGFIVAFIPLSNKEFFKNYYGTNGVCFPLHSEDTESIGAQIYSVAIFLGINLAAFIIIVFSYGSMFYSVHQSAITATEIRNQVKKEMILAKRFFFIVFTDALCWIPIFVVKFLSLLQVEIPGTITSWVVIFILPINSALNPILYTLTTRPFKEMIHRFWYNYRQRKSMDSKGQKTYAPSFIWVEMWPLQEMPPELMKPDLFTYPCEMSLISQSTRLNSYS
Nature of the assay: hRXFP1 HEK293 cAMP assay (HTRF). In kind it is cell-based. The conditions noted are these: HEK293 cells stably expressing human RXFP1; phenylcyclohexyl (tetraline) examples. How it is done: RXFP1 Cyclic Adenosine Monophosphate (cAMP) Assays. Human embryonic kidney cells 293 (HEK293) cells and HEK293 cells stably expressing human RXFP1, were cultured in MEM medium supplemented with 10% qualified FBS, and 300 μg/ml hygromycin (Life Technologies). Cells were dissociated and suspended in assay buffer. The assay buffer was HBSS buffer (with calcium and magnesium) containing 20 mM HEPES, 0.05% BSA, and 0.5 mM IBMX. Cells (3000 cells per well, except 1500 cell per well for HEK293 cells stably expressing human RXFP1) were added to 384-well Proxiplates (Perkin-Elmer). Cells were immediately treated with test compounds in DMSO (2% final) at final concentrations in the range of 0.010 nM to 50 μM. Cells were incubated for 30 min at room temperature. The level of intracellular cAMP was determined using the HTRF HiRange cAMP assay reagent kit (Cisbio) according to manufacturer's instructions. Solutions of cryptate conjugated anti-cAMP and d2 fluorophore-labelled cAMP were made in a supplied lysis buffer separately. Upon completion of the reaction, the cells were lysed with equal volume of the d2-cAMP solution and anti-cAMP solution. After a 1 h room temperature incubation, time-resolved fluorescence intensity was measured using the Envision (Perkin-Elmer) at 400 nm excitation and dual emission at 590 nm and 665 nm. A calibration curve was constructed with an external cAMP standard at concentrations ranging from 2.7 μM to 0.1 μM by plotting the fluorescent intensity ratio from 665 nm emission to the intensity from the 590 nm emission against cAMP concentrations. The potency and activity of a compound to […] cAMP production was then determined by fitting to a 4-parametric logistic equation from a plot of cAMP level versus compound concentrations.
The examples disclosed below were tested in the human RXFP1 (hRXFP1) HEK293 cAMP assay described above and found to have agonist activity. Tables 1-3, lists EC50 values in the hRXFP1 HEK293 cAMP assay measured for the examples.
(In general: Changes in cAMP serve as a functional read-out for many G protein-coupled receptors.)
On to `COc1ccc(C2=NOC3CNCC23)cc1C(=O)Nc1cc2c(cc1C(=O)Nc1ccc(F)c(C(F)(F)F)c1)CCCC2` (mixture of isomers) [Example 15, N-(4-fluoro-3-(trifluoromethyl)phenyl)-3-(2-methoxy-5-(3a,5,6,6a-tetrahydro-4H-pyrrolo[3,4-d]isoxazol-3-yl)benzamido)-5,6,7,8-tetrahydronaphthalene-2-carboxamide], for which the EC50 was 3700 nM.
Still for that read-out and setting: then `COc1ccc(-c2cc(C(NC(=O)C3CCOCC3)C(=O)O)ccc2F)cc1C(=O)Nc1cc2c(cc1C(=O)Nc1ccc(F)c(C(F)(F)F)c1)CCCC2` (single isomer, unassigned) [Example 2, 2-(6-fluoro-3′-((3-((4-fluoro-3-(trifluoromethyl)phenyl)carbamoyl)-5,6,7,8-tetrahydro-naphthalen-2-yl)carbamoyl)-4′-methoxy-[1,1′-biphenyl]-3-yl)-2-(tetrahydro-2H-pyran-4-carboxamido)acetic acid], with 1.8 nM; and `COc1ccc(-c2cc(C(N)C(=O)O)ccc2F)cc1C(=O)Nc1cc2c(cc1C(=O)Nc1ccc(F)c(C(F)(F)F)c1)CCCC2` (single isomer, unassigned) [Example 3, 2-amino-2-(6-fluoro-3′-((3-((4-fluoro-3-(trifluoromethyl)phenyl)carbamoyl)-5,6,7,8-tetrahydronaphthalen-2-yl)carbamoyl)-4′-methoxy-[1,1′-biphenyl]-3-yl)acetic acid], with 2300 nM.
Same read-out and setting: then `COc1ccc(C2=NOC3CC(CO)CC23)cc1C(=O)Nc1cc2c(cc1C(=O)Nc1ccc(F)c(C(F)(F)F)c1)CCCC2` (single isomer, unassigned) [Example 13, N-(4-fluoro-3-(trifluoromethyl)phenyl)-3-(5-(5-(hydroxymethyl)-3a,5,6,6a-tetrahydro-4H-cyclopenta[d]-isoxazol-3-yl)-2-methoxybenzamido)-5,6,7,8-tetrahydronaphthalene-2-carboxamide], with 19 nM; and `COc1ccc(C2=NOC3CC(CO)CC23)cc1C(=O)Nc1cc2c(cc1C(=O)Nc1ccc(F)c(C(F)(F)F)c1)CCCC2` (single isomer, unassigned) [Example 14, N-(4-fluoro-3-(trifluoromethyl)phenyl)-3-(5-(5-(hydroxymethyl)-3a,5,6,6a-tetrahydro-4H-cyclopenta[d]-isoxazol-3-yl)-2-methoxybenzamido)-5,6,7,8-tetrahydronaphthalene-2-carboxamide], with 82 nM.
The same measure, in the same setting: then `COc1ccc(-c2cc(C(=O)O)ccc2F)cc1C(=O)Nc1cc2c(cc1C(=O)Nc1ccc(F)c(C(F)(F)F)c1)CCCC2` [Example 1, 6-fluoro-3′-((3-((4-fluoro-3-(trifluoromethyl)phenyl)carbamoyl)-5,6,7,8-tetrahydronaphthalen-2-yl)carbamoyl)-4′-methoxy-[1,1′-biphenyl]-3-carboxylic acid], with 390 nM.
For `COc1ccc(-c2cc([C@H](O)C(F)(F)F)ccc2F)cc1C(=O)Nc1cc2c(cc1C(=O)Nc1ccc(F)c(C(F)(F)F)c1)CCCC2` [Example 4, (S)—N-(4-fluoro-3-(trifluoromethyl)phenyl)-3-(2′-fluoro-4-methoxy-5′-(2,2,2-trifluoro-1-hydroxyethyl)-[1,1′-biphenyl]-3-carboxamido)-5,6,7,8-tetrahydronaphthalene-2-carboxamide], the EC50 came to 860 nM.
The same measure, in the same setting: then `COc1ccc(-c2cc([C@H](OC(=O)Nc3ccccc3)C(F)(F)F)ccc2F)cc1C(=O)Nc1cc2c(cc1C(=O)Nc1ccc(F)c(C(F)(F)F)c1)CCCC2` [Example 5, (S)-2,2,2-trifluoro-1-(6-fluoro-3′-((3-((4-fluoro-3-(trifluoromethyl)phenyl)carbamoyl)-5,6,7,8-tetrahydronaphthalen-2-yl)carbamoyl)-4′-methoxy-[1,1′-biphenyl]-3-yl)ethyl phenylcarbamate], with 33 nM; and `COc1ccc(-c2cc([C@H](OC(=O)NC3CCC3)C(F)(F)F)ccc2F)cc1C(=O)Nc1cc2c(cc1C(=O)Nc1ccc(F)c(C(F)(F)F)c1)CCCC2` [Example 6, (S)-2,2,2-trifluoro-1-(6-fluoro-3′-((3-((4-fluoro-3-(trifluoromethyl)phenyl)carbamoyl)-5,6,7,8-tetrahydronaphthalen-2-yl)carbamoyl)-4′-methoxy-[1,1′-biphenyl]-3-yl)ethyl cyclobutylcarbamate], with 15 nM.
Same read-out and setting: then `COc1ccc(-c2cc([C@H](OC(=O)NC3CC(F)(F)C3)C(F)(F)F)ccc2F)cc1C(=O)Nc1cc2c(cc1C(=O)Nc1ccc(F)c(C(F)(F)F)c1)CCCC2` [Example 7, (S)-2,2,2-trifluoro-1-(6-fluoro-3′-((3-((4-fluoro-3-(trifluoro-methyl)phenyl)carbamoyl)-5,6,7,8-tetra-hydronaphthalen-2-yl)carbamoyl)-4′-methoxy-[1,1′-biphenyl]-3-yl)ethyl (3,3-difluorocyclo-butyl)carbamate], with 62 nM; and `COc1ccc(-c2cc(C(=O)NCC3CCC3)ccc2F)cc1C(=O)Nc1cc2c(cc1C(=O)Nc1ccc(F)c(C(F)(F)F)c1)CCCC2` [Example 8, N3′-(cyclobutyl-methyl)-6′-fluoro-N3-(3-((4-fluoro-3-(trifluoromethyl)phenyl)carbamoyl)-5,6,7,8-tetrahydro-naphthalen-2-yl)-4-methoxy-[1,1′-biphenyl]-3,3′-dicarboxamide], with 4200 nM; and `COc1ccc(-c2cc(CC(=O)NCC3CCC3)ccc2F)cc1C(=O)Nc1cc2c(cc1C(=O)Nc1ccc(F)c(C(F)(F)F)c1)CCCC2` [Example 9, 3-(5′-(2-((cyclobutylmethyl)amino)-2-oxoethyl)-2′-fluoro-4-methoxy-[1,1′-biphenyl]-3-carboxamido)-N-(4-fluoro-3-(trifluoromethyl)phenyl)-5,6,7,8-tetrahydronaphthalene-2-carboxamide], with 22 nM.
Same read-out and setting: then `COc1ccc(C2=NOC3CC(CO)CC23)cc1C(=O)Nc1cc2c(cc1C(=O)Nc1ccc(F)c(C(F)(F)F)c1)CCCC2` (stereo not shown) [Example 12, N-(4-fluoro-3-(trifluoromethyl)phenyl)-3-(5-(5-(hydroxymethyl)-3a,5,6,6a-tetrahydro-4H-cyclopenta[d]-isoxazol-3-yl)-2-methoxybenzamido)-5,6,7,8-tetrahydronaphthalene-2-carboxamide], with 290 nM.

Still in this assay, the particulars now being: HEK293 cells stably expressing human RXFP1; phenylcyclopentyl examples.
In the case of `COc1ccc(-c2cc(C(=O)O)ccc2F)cc1C(=O)Nc1cc2c(cc1C(=O)Nc1ccc(F)c(C(F)(F)F)c1)CCC2O` (racemic) [Example 29, 6-fluoro-3′-((6-((4-fluoro-3-(trifluoromethyl)phenyl)carbamoyl)-3-hydroxy-2,3-dihydro-1H-inden-5-yl)carbamoyl)-4′-methoxy-[1,1′-biphenyl]-3-carboxylic acid], the EC50 is 2700 nM.
Same read-out and setting: then `COc1ccc(C2=NOC3CC(CO)CC23)cc1C(=O)Nc1cc2c(cc1C(=O)Nc1ccc(F)c(C(F)(F)F)c1)CCC2=O` (single isomer, unassigned) [Example 27, N-(4-fluoro-3-(trifluoromethyl)phenyl)-6-(5-(5-(hydroxymethyl)-3a,5,6,6a-tetrahydro-4H-cyclopenta[d]isoxazol-3-yl)-2-methoxybenzamido)-1-oxo-2,3-dihydro-1H-indene-5-carboxamide], with 34 nM.
Same read-out and setting: then `COc1ccc(C2=NOC3CC(CO)CC23)cc1C(=O)Nc1cc2c(cc1C(=O)Nc1ccc(F)c(C(F)(F)F)c1)CCC2=O` (single isomer, unassigned) [Example 28, N-(4-fluoro-3-(trifluoromethyl)phenyl)-6-(5-(5-(hydroxymethyl)-3a,5,6,6a-tetrahydro-4H-cyclopenta[d]isoxazol-3-yl)-2-methoxybenzamido)-1-oxo-2,3-dihydro-1H-indene-5-carboxamide], with 160 nM.

The values are drawn from patent US20260265208A1, “TETRALINE, PHENYLCYCLOBUTANE AND PHENYLCYCLOPENTANE ANALOGS AS RXFP1 AGONISTS” (BRISTOL-MYERS SQUIBB COMPANY, priority 2021, published 2026).
